This experiment deals with Recombinant KAT6A/MOZ (488-778) protein (Homo sapiens (Human), UniProt Q92794). Description: KAT6A AlphaLISA Inhibition Screening Assay. It is filed as biochemical. As to conditions: for inhibition at 1 µM: read-out: Average Kat6A % inhibition @ 1 μM; for inhibition at 1 µM / Average Kat6A % inhibition @ 1 μM: 1 μM test compound; for inhibition at 10 µM: read-out: Average Kat6A % inhibition @ 10 μM; for inhibition at 10 µM / Average Kat6A % inhibition @ 10 μM: 10 μM test compound. The method in brief: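 AlphaLISA read-out with anti-acetyl-lysine acceptor and streptavidin donor beads, % inhibition relative to vehicle. Reaction: biotinylated histone H3 1-21 (200 nM) and acetyl-CoA (400 nM) with KAT6A 488-778 (25 nM), 120 min at room temperature, pH 8.0, 330 nM TSA, after 60 or 10 min enzyme–compound pre-incubation; 10-point 3-fold series from 10 μM.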
(Alpha assays give light when donor and acceptor beads are brought close together.)

The structures appear in SMILES notation.

Usually inhibition stands for the percentage by which the read-out fell short of the control.

Recombinant KAT6A/MOZ (488-778) protein, sequence (Q92794 488-778): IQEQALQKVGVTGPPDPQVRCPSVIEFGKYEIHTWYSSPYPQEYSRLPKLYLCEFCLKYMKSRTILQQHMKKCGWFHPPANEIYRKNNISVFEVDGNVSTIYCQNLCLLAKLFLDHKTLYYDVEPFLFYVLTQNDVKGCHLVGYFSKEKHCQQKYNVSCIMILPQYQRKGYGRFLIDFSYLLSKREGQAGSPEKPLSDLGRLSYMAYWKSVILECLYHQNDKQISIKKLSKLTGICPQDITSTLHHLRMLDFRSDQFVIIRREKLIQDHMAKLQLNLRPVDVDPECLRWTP

Take `C#CC(=O)NCc1cnc(Oc2cc(OC)c3c(NS(=O)(=O)c4cc(CC)ccc4OC)noc3c2)s1` [Syn. Ex. 103, N-((2-((3-((5-ethyl-2-methoxyphenyl)sulfonamido)-4-methoxybenzo[d]isoxazol-6-yl)oxy)thiazol-5-yl)methyl)propiolamide]: the inhibition at 1 µM came to 97% and the inhibition at 10 µM was 99%.

Consider `CCC(=O)N1Cc2cnn(Cc3cc(OC)c4c(NS(=O)(=O)c5ccccc5OC)noc4c3)c2C1` [Syn. Ex. 3, 2-methoxy-N-(4-methoxy-6-((5-propionyl-5,6-dihydropyrrolo[3,4-c]pyrazol-1(4H)-yl)methyl)benzo[d]isoxazol-3-yl)benzenesulfonamide], for which the inhibition at 1 µM was 100% and the inhibition at 10 µM turned out to be 100%.

Take `CCc1ccc(OC)c(S(=O)(=O)Nc2noc3cc(Oc4ncc(CN[S+]([O-])C(C)(C)C)o4)cc(OC)c23)c1` (stereo not drawn) [Syn. Ex. 98, N-(6-((5-(((tert-Butylsulfinyl)amino)methyl)oxazol-2-yl)oxy)-4-methoxybenzo[d]isoxazol-3-yl)-5-ethyl-2-methoxybenzenesulfonamide]: the inhibition at 1 µM was determined as 78% and the inhibition at 10 µM was found to be 92%.

Regarding `C=C(F)C(=O)NCc1cnn(Cc2cc(OC)c3c(NS(=O)(=O)c4cc(CC)ccc4OCCNC(C)=O)noc3c2)c1` [Syn. Ex. 82, N-((1-((3-((2-(2-acetamidoethoxy)-5-ethylphenyl)sulfonamido)-4-methoxybenzo[d]isoxazol-6-yl)methyl)-1H-pyrazol-4-yl)methyl)-2-fluoroacrylamide], the inhibition at 1 µM amounted to 94% and the inhibition at 10 µM is 99%.

On to `CCc1ccc(OCC(=N)NO)c(S(=O)(=O)Nc2noc3cc(Cn4cc(CNC(=O)OC)cn4)cc(OC)c23)c1` [Syn. Ex. 115, methyl ((1-((3-((5-ethyl-2-(2-(hydroxyamino)-2-iminoethoxy)phenyl)sulfonamido)-4-methoxybenzo[d]isoxazol-6-yl)methyl)-1H-pyrazol-4-yl)methyl)carbamate], for which the inhibition at 1 µM came out at 100% and the inhibition at 10 µM was found to be 100%.

Regarding `CCc1ccc(OCCC#N)c(S(=O)(=O)Nc2noc3cc(Cn4cc(CNC(=O)OC)cn4)cc(OC)c23)c1` [Syn. Ex. 83, methyl ((1-((3-((2-(2-cyanoethoxy)-5-ethylphenyl)sulfonamido)-4-methoxybenzo[d]isoxazol-6-yl)methyl)-1H-pyrazol-4-yl)methyl)carbamate], the inhibition at 1 µM is 98% and the inhibition at 10 µM was found to be 99%.

For the molecule `C#CC(=O)N1Cc2cn(Cc3cc(OC)c4c(NS(=O)(=O)c5cc(OC)ccc5OC)noc4c3)nc2C1` [Syn. Ex. 5, 2,5-dimethoxy-N-(4-methoxy-6-((5-propioloyl-5,6-dihydropyrrolo[3,4-c]pyrazol-2(4H)-yl)methyl)benzo[d]isoxazol-3-yl)benzenesulfonamide], the inhibition at 1 µM was 83% and the inhibition at 10 µM amounted to 100%.

Consider `CCc1ccc(OCCN)c(S(=O)(=O)Nc2noc3cc(Cn4cc(CNC(=O)OC)cn4)cc(OC)c23)c1` [Syn. Ex. 75, methyl ((1-((3-((2-(2-aminoethoxy)-5-ethylphenyl)sulfonamido)-4-methoxybenzo[d]isoxazol-6-yl)methyl)-1H-pyrazol-4-yl)methyl)carbamate], for which the inhibition at 1 µM stood at 59% and the inhibition at 10 µM is 92%.

As to `CCc1ccc(OC)c(S(=O)(=O)Nc2noc3cc(Cn4cc(CNC(=O)OCCNC(=O)OC(C)(C)C)cn4)cc(OC)c23)c1` [Syn. Ex. 31, 2-((tert-butoxycarbonyl)amino)ethyl ((1-((3-((5-ethyl-2-methoxyphenyl)sulfonamido)-4-methoxybenzo[d]isoxazol-6-yl)methyl)-1H-pyrazol-4-yl)methyl)carbamate], the inhibition at 1 µM came out at 86% and the inhibition at 10 µM was determined as 99%.

Turning to `CCc1ccc(OC)c(S(=O)(=O)Nc2noc3cc(Oc4ncc(CNC(=O)OC)o4)cc(OC)c23)c1` [Syn. Ex. 100, methyl ((2-((3-((5-ethyl-2-methoxyphenyl)sulfonamido)-4-methoxybenzo[d]isoxazol-6-yl)oxy)oxazol-5-yl)methyl)carbamate], the inhibition at 1 µM amounted to 92% and the inhibition at 10 µM was determined as 100%.

Regarding `COc1ccc(C(C)(C)C)cc1S(=O)(=O)Nc1noc2cc(Cn3cc(CNS(C)(=O)=O)cn3)cc(OC)c12` [Syn. Ex. 33, 5-(tert-butyl)-2-methoxy-N-(4-methoxy-6-((4-(methylsulfonamidomethyl)-1H-pyrazol-1-yl)methyl)benzo[d]isoxazol-3-yl)benzenesulfonamide], the inhibition at 1 µM was 96% and the inhibition at 10 µM amounted to 100%.

On to `C=C(F)C(=O)NCc1cnn(Cc2cc(OC)c3c(NS(=O)(=O)c4cc(C)c(C)cc4OC)noc3c2)c1` [Syn. Ex. 28, 2-fluoro-N-((1-((4-methoxy-3-((2-methoxy-4,5-dimethylphenyl)sulfonamido)benzo[d]isoxazol-6-yl)methyl)-1H-pyrazol-4-yl)methyl)acrylamide], for which the inhibition at 1 µM was determined as 100% and the inhibition at 10 µM was 100%.

In the case of `C=C(F)C(=O)NCc1cnn(Cc2cc(OC)c3c(NS(=O)(=O)c4cc(CC)ccc4OCc4ncon4)noc3c2)c1` [Syn. Ex. 73, N-((1-((3-((2-((1,2,4-oxadiazol-3-yl)methoxy)-5-ethylphenyl)sulfonamido)-4-methoxybenzo[d]isoxazol-6-yl)methyl)-1H-pyrazol-4-yl)methyl)-2-fluoroacrylamide], the inhibition at 1 µM was 100% and the inhibition at 10 µM came out at 100%.

As to `CCc1ccc(OC)c(S(=O)(=O)Nc2noc3cc(Cn4cc(CNC(=O)[C@@H](C)F)cn4)cc(OC)c23)c1` (single isomer, unassigned) [Syn. Ex. 47a], the inhibition at 1 µM worked out at 100% and the inhibition at 10 µM is 100%.

On to `COc1cc2c(cc1S(=O)(=O)Nc1noc3cc(Cn4cc(CNS(C)(=O)=O)cn4)cc(OC)c13)CCC2` [Syn. Ex. 24, 6-methoxy-N-(4-methoxy-6-((4-(methylsulfonamidomethyl)-1H-pyrazol-1-yl)methyl)benzo[d]isoxazol-3-yl)-2,3-dihydro-1H-indene-5-sulfonamide], for which the inhibition at 1 µM came to 99% and the inhibition at 10 µM was determined as 100%.

`COC(=O)NCc1cnn(Cc2cc(OC)c3c(NS(=O)(=O)c4cc(C(F)F)ccc4OC)noc3c2)c1` [Syn. Ex. 135, methyl ((1-((3-((5-(difluoromethyl)-2-methoxyphenyl)sulfonamido)-4-methoxybenzo[d]isoxazol-6-yl)methyl)-1H-pyrazol-4-yl)methyl)carbamate]: the inhibition at 1 µM came out at 96% and the inhibition at 10 µM was found to be 97%.

Regarding `C=C(F)C(=O)Nc1ccc(Oc2cc(OC)c3c(NS(=O)(=O)c4cc5c(cc4OC)CCC5)noc3c2)nc1` [Syn. Ex. 144, 2-fluoro-N-(6-((4-methoxy-3-((6-methoxy-2,3-dihydro-1H-indene)-5-sulfonamido)benzo[d]isoxazol-6-yl)oxy)pyridin-3-yl)acrylamide], the “Average Kat6A % inhibition @ 1 μM” value worked out at 101% and the “Average Kat6A % inhibition @ 10 μM” value was determined as 99%.

With `C=C(F)C(=O)NCc1cnn(Cc2cc3onc(NS(=O)(=O)c4ccccc4OC)c3cc2OC)c1` [Syn. Ex. 146, 2-fluoro-N-((1-((5-methoxy-3-((2-methoxyphenyl)sulfonamido)benzo[d]isoxazol-6-yl)methyl)-1H-pyrazol-4-yl)methyl) acrylamide], the “Average Kat6A % inhibition @ 1 μM” value is reported as 99% and the “Average Kat6A % inhibition @ 10 μM” value is recorded as 101%.

For the molecule `COC(=O)NCc1cnn(Cc2cc3onc(NS(=O)(=O)c4cc5c(cc4OC)CCC5)c3cc2OC)c1` [Syn. Ex. 147, methyl ((1-((5-methoxy-3-((6-methoxy-2,3-dihydro-1H-indene)-5-sulfonamido)benzo[d]isoxazol-6-yl)methyl)-1H-pyrazol-4-yl)methyl)carbamate], the “Average Kat6A % inhibition @ 1 μM” value is listed as 101% and the “Average Kat6A % inhibition @ 10 μM” value was 101%.

As to `CCc1ccc(OC)c(S(=O)(=O)Nc2noc3cc(Cn4cc(CNC(=O)OC)cn4)cc(OC(F)F)c23)c1` [Syn. Ex. 63, methyl ((1-((4-(difluoromethoxy)-3-((5-ethyl-2-methoxyphenyl)sulfonamido)benzo[d]isoxazol-6-yl)methyl)-1H-pyrazol 4yl)methyl)carbamate], the inhibition at 1 µM was 95% and the inhibition at 10 µM amounted to 96%.

Regarding `C#CC(=O)NCc1cnn(Cc2cc(OC)c3c(NS(=O)(=O)c4cc(Cl)c(C)cc4OC)noc3c2)c1` [Syn. Ex. 21, N-((1-((3-((5-chloro-2-methoxy-4-methylphenyl)sulfonamido)-4-methoxybenzo[d]isoxazol-6-yl)methyl)-1H-pyrazol-4-yl)methyl)propiolamide], the inhibition at 1 µM is 100% and the inhibition at 10 µM was 99%.

Turning to `COC(=O)NCc1cnn(Cc2cc(OC)c3c(NS(=O)(=O)c4cc(C)ccc4OC)noc3c2)c1` [Syn. Ex. 88, methyl ((1-((4-methoxy-3-((2-methoxy-5-methylphenyl)sulfonamido)benzo[d]isoxazol-6-yl)methyl)-1H-pyrazol-4-yl)methyl)carbamate], the inhibition at 1 µM amounted to 99% and the inhibition at 10 µM worked out at 98%.

As for `C=C(F)C(=O)NCc1cnc(Oc2cc(OC)c3c(NS(=O)(=O)c4cc(CC)ccc4OC)noc3c2)o1` [Syn. Ex. 99, N-((2-((3-((5-ethyl-2-methoxyphenyl)sulfonamido)-4-methoxybenzo[d]isoxazol-6-yl)oxy)oxazol-5-yl)methyl)-2-fluoroacrylamide], the inhibition at 1 µM stood at 91% and the inhibition at 10 µM was 100%.

Turning to `CCc1cnc(OC)c(S(=O)(=O)Nc2noc3cc(Cn4cc(CNC(=O)OC)cn4)cc(OC)c23)c1` [Syn. Ex. 121, methyl ((1-((3-((5-ethyl-2-methoxypyridine)-3-sulfonamido)-4-methoxybenzo[d]isoxazol-6-yl)methyl)-1H-pyrazol-4-yl)methyl)carbamate], the “Average Kat6A % inhibition @ 1 μM” value turned out to be 100% and the “Average Kat6A % inhibition @ 10 μM” value was 94%.

Source of the values: patent publication US20250122182A1 (Isosterix, Inc., priority 2023, published 2025).
